The record followed here is ChEMBL document CHEMBL5154682, “TDP-43 Modulation by Tau-Tubulin Kinase 1 Inhibitors: A New Avenue for Future Amyotrophic Lateral Sclerosis Therapy” (J Med Chem, 2022).

For series [1], the target named is T1, Tau-tubulin kinase 1 (Homo sapiens, UniProt Q5TCY1). The following applies: dose 10.0 µM, time 30.0 min.
Series [2] can be described thus: Selectivity index, ratio of IC50 for recombinant human TTBK1 to IC50 for recombinant human TTBK2.
Series [3] can be described thus: Permeability of the compound at pH 7.4 PBS/EtOH buffer (70:30) by PAMPA-BBB assay. In general terms: PAMPA measures passive passage across an artificial lipid membrane.
The target of series [4] is T1, Tau-tubulin kinase 1.
Series [5] addresses T2, Tau-tubulin kinase 2 (Homo sapiens, UniProt Q6IQ55).
Series [6] has as its target T2, Tau-tubulin kinase 2. As to conditions: dose 10.0 µM, time 30.0 min.
Another series deals with SH-SY5Y. Description: Neuroprotective activity against okadaic acid-induced neurotoxicity in human SH-SY5Y cells assessed as reduction in Tau hyperphosphorylation by measuring cell viability at 1 to 5 uM incubated for 24 hrs by MTT assay. The class given is functional, cell-based. The following applies: dose 1-5 µM. For orientation: Tetrazolium dyes change colour on reduction, which living cells bring about.

The source made the active and inactive calls. The rule behind the calls is not given here.

T1 sequence (Q5TCY1 whole entry): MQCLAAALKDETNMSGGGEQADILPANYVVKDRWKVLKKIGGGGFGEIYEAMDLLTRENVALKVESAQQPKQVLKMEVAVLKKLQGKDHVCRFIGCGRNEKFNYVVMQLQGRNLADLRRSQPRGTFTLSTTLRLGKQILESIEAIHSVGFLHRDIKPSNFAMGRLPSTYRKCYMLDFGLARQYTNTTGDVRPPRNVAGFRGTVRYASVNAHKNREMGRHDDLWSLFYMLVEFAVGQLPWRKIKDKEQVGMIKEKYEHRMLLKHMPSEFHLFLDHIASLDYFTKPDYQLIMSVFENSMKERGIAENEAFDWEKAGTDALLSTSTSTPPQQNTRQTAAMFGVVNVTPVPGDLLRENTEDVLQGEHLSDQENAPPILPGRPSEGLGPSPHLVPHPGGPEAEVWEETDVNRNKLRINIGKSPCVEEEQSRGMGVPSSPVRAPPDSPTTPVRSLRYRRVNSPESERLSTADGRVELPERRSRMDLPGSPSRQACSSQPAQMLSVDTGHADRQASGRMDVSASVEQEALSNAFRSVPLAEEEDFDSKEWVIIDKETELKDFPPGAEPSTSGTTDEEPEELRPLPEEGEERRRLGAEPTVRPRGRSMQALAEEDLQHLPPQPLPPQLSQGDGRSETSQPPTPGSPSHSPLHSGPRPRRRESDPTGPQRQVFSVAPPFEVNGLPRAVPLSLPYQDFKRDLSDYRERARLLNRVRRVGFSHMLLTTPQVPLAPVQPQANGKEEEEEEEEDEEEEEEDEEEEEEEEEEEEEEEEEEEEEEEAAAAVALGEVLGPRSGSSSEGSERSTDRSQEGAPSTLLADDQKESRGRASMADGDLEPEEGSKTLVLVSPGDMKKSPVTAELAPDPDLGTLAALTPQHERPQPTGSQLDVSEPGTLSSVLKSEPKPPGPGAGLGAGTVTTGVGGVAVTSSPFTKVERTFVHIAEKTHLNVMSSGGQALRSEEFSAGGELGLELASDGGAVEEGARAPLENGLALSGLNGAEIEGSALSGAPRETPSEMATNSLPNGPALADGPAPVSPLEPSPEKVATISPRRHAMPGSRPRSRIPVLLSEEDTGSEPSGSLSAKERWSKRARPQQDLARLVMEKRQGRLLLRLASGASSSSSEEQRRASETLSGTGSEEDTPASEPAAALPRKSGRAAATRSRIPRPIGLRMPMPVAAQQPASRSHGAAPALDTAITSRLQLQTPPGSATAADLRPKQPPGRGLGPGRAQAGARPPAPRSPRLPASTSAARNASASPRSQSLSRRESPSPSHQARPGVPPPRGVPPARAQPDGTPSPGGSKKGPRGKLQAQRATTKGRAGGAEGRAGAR
T2 sequence (Q6IQ55 whole entry): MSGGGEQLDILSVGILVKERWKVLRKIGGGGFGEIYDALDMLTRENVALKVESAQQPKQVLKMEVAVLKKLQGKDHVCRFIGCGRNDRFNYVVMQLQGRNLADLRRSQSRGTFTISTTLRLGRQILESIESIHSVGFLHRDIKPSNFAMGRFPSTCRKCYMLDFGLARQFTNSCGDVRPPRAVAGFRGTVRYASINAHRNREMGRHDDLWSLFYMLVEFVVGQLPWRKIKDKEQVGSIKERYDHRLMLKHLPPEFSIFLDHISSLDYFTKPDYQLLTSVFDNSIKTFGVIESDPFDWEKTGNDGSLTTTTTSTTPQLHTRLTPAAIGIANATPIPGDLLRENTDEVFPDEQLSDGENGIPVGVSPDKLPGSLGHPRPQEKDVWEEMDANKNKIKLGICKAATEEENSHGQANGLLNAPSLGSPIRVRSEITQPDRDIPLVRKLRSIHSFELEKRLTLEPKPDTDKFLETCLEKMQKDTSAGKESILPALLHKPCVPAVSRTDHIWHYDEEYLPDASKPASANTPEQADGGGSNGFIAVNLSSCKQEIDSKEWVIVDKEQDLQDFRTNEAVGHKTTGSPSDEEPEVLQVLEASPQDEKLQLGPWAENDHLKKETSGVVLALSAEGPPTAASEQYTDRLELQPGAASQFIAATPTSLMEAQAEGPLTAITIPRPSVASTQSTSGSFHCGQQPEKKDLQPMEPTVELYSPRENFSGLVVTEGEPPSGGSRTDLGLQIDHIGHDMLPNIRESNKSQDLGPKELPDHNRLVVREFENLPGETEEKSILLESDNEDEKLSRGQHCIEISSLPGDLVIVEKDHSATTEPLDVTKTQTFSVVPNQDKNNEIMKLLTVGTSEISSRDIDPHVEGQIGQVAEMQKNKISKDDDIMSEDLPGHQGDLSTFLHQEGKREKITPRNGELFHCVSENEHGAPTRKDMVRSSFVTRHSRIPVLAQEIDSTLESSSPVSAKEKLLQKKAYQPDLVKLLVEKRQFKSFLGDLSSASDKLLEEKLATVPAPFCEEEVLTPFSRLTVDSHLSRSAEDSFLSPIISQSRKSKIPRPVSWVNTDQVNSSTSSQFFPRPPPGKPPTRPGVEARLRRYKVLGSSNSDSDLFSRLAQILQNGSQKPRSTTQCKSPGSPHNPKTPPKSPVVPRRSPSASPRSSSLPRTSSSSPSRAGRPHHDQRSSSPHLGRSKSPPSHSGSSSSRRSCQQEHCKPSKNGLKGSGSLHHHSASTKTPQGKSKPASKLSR

On to `O=C(c1ccc(Nc2ncnc3[nH]ccc23)cc1)c1ccc(Cl)c(Cl)c1`, for which the inhibition (in general, the relative decrease from the control value, in per cent) on Tau-tubulin kinase 1 [1] came out at 9%.
In the case of `Clc1ccc(Oc2ccc(Nc3ncnc4[nH]ccc34)cc2)cc1Cl`, the Selectivity Index in series [2] is 0.4. Further, the permeability result in series [3] is “Permeable”. Further, the half-maximal inhibitory concentration (IC50) – broadly, the concentration that inhibits the measured activity by half – on Tau-tubulin kinase 1 [4] was 2.3 µM; on Tau-tubulin kinase 2 [5] it was 5.72 µM.
For `Clc1cccc(Cn2cc(COc3ccc(Nc4ncnc5[nH]ccc45)cc3)nn2)c1`, in that order: 0.24, “Impermeable”, 0.48 µM and 2.03 µM.
Regarding `c1nc(NC2CCCCC2)c2cc[nH]c2n1`, the inhibition was 3% on Tau-tubulin kinase 1 [1] and 15% on Tau-tubulin kinase 2 [6].
`COc1ccc(Oc2ccc(Nc3ncnc4[nH]ccc34)cc2)cc1`: the permeability result in series [3] is listed as “Permeable”.
For `Nc1nc(Nc2ccc(Oc3cccc(Cl)c3)cc2)c2cc[nH]c2n1`, the Selectivity Index in series [2] was 0.12. Also, the permeability result in series [3] was “Permeable”.
On to `Clc1ccc(CCNc2ncnc3[nH]ccc23)cc1`, for which the figures for the IC50 at Tau-tubulin kinase 1 [4] and on Tau-tubulin kinase 2 [5] were 18.2 µM and 86 µM, respectively.
In the case of `Clc1ccccc1Nc1ncnc2[nH]ccc12`, the Selectivity Index in series [2] worked out at 0.51. Further, the results for the IC50 at Tau-tubulin kinase 1 [4] and against Tau-tubulin kinase 2 [5] were 21.8 µM and 42.1 µM, respectively.
On to `Oc1ccc(Nc2ncnc3[nH]ccc23)cc1`, for which, in series [2], the Selectivity Index was determined as 0.45. Moreover, the IC50 worked out at 3 µM against Tau-tubulin kinase 1 [4] and 7.4 µM on Tau-tubulin kinase 2 [5].
Regarding `c1cc2c(c(Nc3ncnc4[nH]ccc34)c1)CCCC2`, the figures for the inhibition on Tau-tubulin kinase 1 [1] and at Tau-tubulin kinase 2 [6] were 23% and 10%, respectively.
Turning to `Nc1nc(Nc2ccc(Oc3cccc(C(F)(F)F)c3)cc2)c2cc[nH]c2n1`, the Selectivity Index in series [2] was determined as 0.33. Further, the permeability entry in series [3] is reported as “Permeable”.
Regarding `Clc1cccc(Nc2ncnc3[nH]ccc23)c1`, in series [2], the Selectivity Index was 1.09. Also, the half-inhibitory concentration (IC50) against Tau-tubulin kinase 1 [4] came to 15.2 µM; against Tau-tubulin kinase 2 [5] it was 13.9 µM.
On to `O=C(c1ccc(F)cc1)c1ccc(Nc2ncnc3[nH]ccc23)cc1`, for which the permeability entry in series [3] is “Permeable”.
As for `Clc1ccc(Nc2ncnc3[nH]ccc23)cc1`, the Selectivity Index in series [2] turned out to be 0.15. For the same compound, the IC50 against Tau-tubulin kinase 1 [4] was 3.2 µM; against Tau-tubulin kinase 2 [5], 20.3 µM.
Regarding `Clc1ccc(CNc2ncnc3[nH]ccc23)cc1`, the inhibition against Tau-tubulin kinase 1 [1] came out at 32%; on Tau-tubulin kinase 2 [6], 10%.
Consider `Cc1ccc(Cn2cc(COc3ccc(Nc4ncnc5[nH]ccc45)cc3)nn2)cc1`, for which, in series [2], the Selectivity Index came out at 0.57. The permeability entry in series [3] was “Impermeable”. Further, the 50% inhibitory concentration (IC50) on Tau-tubulin kinase 1 [4] amounted to 0.99 µM; at Tau-tubulin kinase 2 [5] it was 1.75 µM.
Consider `c1cncc(Oc2ccc(Nc3ncnc4[nH]ccc34)cc2)c1`, for which the Selectivity Index in series [2] amounted to 0.12. Besides, in series [3], the permeability entry is given as “Impermeable”. Further, the IC50 against Tau-tubulin kinase 1 [4] is 0.75 µM; against Tau-tubulin kinase 2 [5], 6.05 µM.
Regarding `Clc1ccccc1Oc1ccc(Nc2ncnc3[nH]ccc23)cc1`, the permeability entry in series [3] is recorded as “Permeable”.
Turning to `Clc1ccccc1Cn1cc(COc2ccc(Nc3ncnc4[nH]ccc34)cc2)nn1`, the Selectivity Index in series [2] stood at 0.13. In series [3], the permeability entry is “Impermeable”. Moreover, the results for the 50% inhibitory concentration (IC50) on Tau-tubulin kinase 1 [4] and against Tau-tubulin kinase 2 [5] were 0.36 µM and 2.75 µM, respectively.
On to `Cn1c(=O)c2c(ncn2C)n(C)c1=O` [CAFFEINE], for which, in series [3], the permeability entry is on record as “Permeable”.
The same measure, in the same setting: then `Cc1cccc(Oc2ccc(Nc3ncnc4[nH]ccc34)cc2)c1`, with “Permeable”.
Consider `c1ccc(Nc2ncnc3[nH]ccc23)cc1`, for which, in series [2], the Selectivity Index came out at 0.47. In addition, the permeability result in series [3] is “Permeable”. The figures for the IC50 on Tau-tubulin kinase 1 [4] and against Tau-tubulin kinase 2 [5] were 0.79 µM and 1.68 µM, respectively.
In the case of `FC(F)(F)c1cccc(Oc2ccc(Nc3ncnc4[nH]ccc34)cc2)c1`, at Tau-tubulin kinase 2 [6], the inhibition is 1%.
As to `CN1C(C(=O)Nc2ccccn2)=C(O)c2ccccc2S1(=O)=O` [PIROXICAM], the permeability result in series [3] is listed as “Permeable”.
The same measure, in the same setting: the same measure for `Brc1ccc(Oc2ccc(Nc3ncnc4[nH]ccc34)cc2)cc1`: “Permeable”.
For the compound `CNCCCN1c2ccccc2CCc2ccccc21` [DESIPRAMINE], in series [3], the permeability entry is reported as “Permeable”.
Take `FC(F)(F)Oc1ccc(Nc2ncnc3[nH]ccc23)cc1`: the Selectivity Index in series [2] was determined as 0.11. Further, the permeability result in series [3] is given as “Impermeable”. In addition, the 50% inhibitory concentration (IC50) amounted to 1 µM on Tau-tubulin kinase 1 [4] and 8.8 µM against Tau-tubulin kinase 2 [5].
Take `c1nc(Nc2ccc(N3CCOCC3)cc2)c2cn[nH]c2n1`: the values for the inhibition against Tau-tubulin kinase 1 [1] and at Tau-tubulin kinase 2 [6] were 25% and 12%, respectively.
For the compound `Oc1ccc(Nc2ncnc3[nH]ncc23)cc1`, the inhibition was 3% on Tau-tubulin kinase 1 [1] and 1% against Tau-tubulin kinase 2 [6].
The compound `Oc1cccc(Nc2ncnc3[nH]ncc23)c1` showed an inhibition at Tau-tubulin kinase 2 [6] of 13%. Also, in series [2], the Selectivity Index worked out at 0.22. This compound also came in with a concentration for half-maximal inhibition (IC50) at Tau-tubulin kinase 1 [4] of 9.15 µM.
For `Oc1ccc(CCNc2ncnc3[nH]ccc23)cc1`, in series [2], the Selectivity Index is 0.33. Besides, the results for the IC50 at Tau-tubulin kinase 1 [4] and against Tau-tubulin kinase 2 [5] were 12.8 µM and 37.7 µM, respectively.
As to `Fc1ccc(Oc2ccc(Nc3ncnc4[nH]ccc34)cc2)cc1`, in series [2], the Selectivity Index was 0.25. In addition, the permeability entry in series [3] is on record as “Permeable”.
As to `O=C(c1ccccc1)c1ccc(Nc2ncnc3[nH]ccc23)cc1`, the permeability entry in series [3] is on record as “Permeable”. In addition, the result in the series with SH-SY5Y was Active.
On Tau-tubulin kinase 1 [1], `c1ccc(Nc2ncnc3sccc23)cc1` displayed an inhibition of 17%.
`c1ccc(COc2ccc(Nc3ncnc4[nH]ccc34)cc2)cc1`: in series [3], the permeability entry is “Permeable”.
As to `c1cc(Nc2ncnc3[nH]ccc23)cc(N2CCOCC2)c1`, in series [2], the Selectivity Index is 0.82. For the same compound, the half-maximal inhibitory concentration (IC50) at Tau-tubulin kinase 1 [4] stood at 4.7 µM; against Tau-tubulin kinase 2 [5], 5.7 µM.
Turning to `COc1ccc(Nc2ncnc3[nH]ccc23)cc1`, the Selectivity Index in series [2] came out at 0.39. Besides, in series [3], the permeability entry was “Impermeable”. The IC50 was found to be 0.52 µM on Tau-tubulin kinase 1 [4] and 1.32 µM at Tau-tubulin kinase 2 [5].
`Clc1ccc(Nc2ncnc3sccc23)cc1` yielded an inhibition at Tau-tubulin kinase 1 [1] of 20%.
Consider `CCOc1ccc(Nc2ncnc3[nH]ccc23)cc1`, for which, in series [2], the Selectivity Index is 0.16. In addition, the permeability entry in series [3] is given as “Impermeable”. The outcome in the series on SH-SY5Y was Active. Besides, the half-maximal inhibitory concentration (IC50) was found to be 2.3 µM against Tau-tubulin kinase 1 [4] and 13.7 µM against Tau-tubulin kinase 2 [5].
The compound `FC(F)(F)c1ccc(Oc2ccc(Nc3ncnc4[nH]ccc34)cc2)cc1` returned an inhibition against Tau-tubulin kinase 2 [6] of 5%.
Consider `CN(C)CCCN1c2ccccc2Sc2ccccc21` [PROMAZINE], for which, in series [3], the permeability result is recorded as “Permeable”.
On the same count and under the same terms, then `c1ccc(Oc2ccc(Nc3ncnc4[nH]ccc34)cc2)cc1`, with “Permeable”; and `Nc1nc(Nc2ccc(Oc3ccc(Cl)cc3)cc2)c2cc[nH]c2n1`, with “Permeable”.
Regarding `COC(=O)c1cc(Nc2ncnc3[nH]ccc23)ccc1Br`, the half-maximal inhibitory concentration (IC50) against Tau-tubulin kinase 1 [4] came to 2.2 µM; against Tau-tubulin kinase 2 [5], 4.2 µM.
Take `CC(C)Oc1ccc(Nc2ncnc3[nH]ccc23)cc1`: in series [2], the Selectivity Index is 0.17. For the same compound, in series [3], the permeability result was “Permeable”. Besides, the outcome in the series on SH-SY5Y was Active. The IC50 against Tau-tubulin kinase 1 [4] was found to be 1.5 µM; on Tau-tubulin kinase 2 [5], 8.4 µM.
With `Oc1cccc(Nc2ncnc3[nH]ccc23)c1`, in series [2], the Selectivity Index came out at 0.9. In addition, the IC50 came out at 6.1 µM on Tau-tubulin kinase 1 [4] and 6.7 µM on Tau-tubulin kinase 2 [5].
Turning to `Nc1ccc(Sc2ccc(Nc3ncnc4[nH]ccc34)cc2)cc1`, in series [3], the permeability result is on record as “Permeable”.
`c1cc(Nc2ncnc3[nH]ccc23)c2c(c1)OCO2`: the Selectivity Index in series [2] is 0.21. The permeability result in series [3] was “Permeable”. Besides, in the series on SH-SY5Y, the result was Active. Moreover, the 50% inhibitory concentration (IC50) on Tau-tubulin kinase 1 [4] turned out to be 1.58 µM; on Tau-tubulin kinase 2 [5] it was 7.58 µM.
With `CCn1cc(C(=O)O)c(=O)c2cc(F)c(N3CCNCC3)nc21` [ENOXACIN], the permeability result in series [3] is listed as “Permeable”.
For `CC(=O)c1ccc(Nc2ncnc3[nH]ccc23)cc1`, in series [2], the Selectivity Index was 0.46. The IC50 against Tau-tubulin kinase 1 [4] worked out at 4.3 µM; against Tau-tubulin kinase 2 [5], 9.3 µM.
Consider `O=[N+]([O-])c1ccc(Oc2ccc(Nc3ncnc4[nH]ccc34)cc2)cc1`, for which, in series [3], the permeability entry is “Permeable”.
Consider `Nc1nc(Nc2ccc(Oc3ccc(C(F)(F)F)cc3)cc2)c2cc[nH]c2n1`, for which the Selectivity Index in series [2] came out at 0.13. Moreover, the permeability entry in series [3] is on record as “Permeable”. For the same compound, the outcome with SH-SY5Y was Active. Further, the IC50 on Tau-tubulin kinase 1 [4] was 0.38 µM.
Take `Oc1ccccc1Nc1ncnc2[nH]ccc12`: the inhibition against Tau-tubulin kinase 1 [1] amounted to 14%; on Tau-tubulin kinase 2 [6] it was 1%.
Consider `Clc1ccc(Nc2ncnc3[nH]ncc23)cc1`, for which the results for the inhibition on Tau-tubulin kinase 1 [1] and at Tau-tubulin kinase 2 [6] were 8% and 1%, respectively.
Consider `c1nc(Nc2ccc(N3CCOCC3)cc2)c2cc[nH]c2n1`, for which, in series [2], the Selectivity Index came out at 0.3. The 50% inhibitory concentration (IC50) on Tau-tubulin kinase 1 [4] came out at 4.9 µM; at Tau-tubulin kinase 2 [5], 15.7 µM.
In the case of `c1ccc(-n2cc(COc3ccc(Nc4ncnc5[nH]ccc45)cc3)nn2)cc1`, the inhibition against Tau-tubulin kinase 1 [1] was 29%; at Tau-tubulin kinase 2 [6], 1%.
As to `Clc1ccc(Cn2cc(COc3ccc(Nc4ncnc5[nH]ccc45)cc3)nn2)cc1`, the Selectivity Index in series [2] was 0.21. In addition, in series [3], the permeability entry was “Impermeable”. In addition, the half-inhibitory concentration (IC50) was found to be 0.61 µM at Tau-tubulin kinase 1 [4] and 2.87 µM against Tau-tubulin kinase 2 [5].
Turning to `c1ccc(CCn2cc(COc3ccc(Nc4ncnc5[nH]ccc45)cc3)nn2)cc1`, the Selectivity Index in series [2] came to 0.15. The permeability result in series [3] is on record as “Impermeable”. The values for the IC50 at Tau-tubulin kinase 1 [4] and at Tau-tubulin kinase 2 [5] were 0.39 µM and 2.61 µM, respectively.
On to `Oc1ccc(CNc2ncnc3[nH]ccc23)cc1`, for which the inhibition came out at 23% at Tau-tubulin kinase 1 [1] and 10% against Tau-tubulin kinase 2 [6].
With `COc1cccc(Oc2ccc(Nc3ncnc4[nH]ccc34)cc2)c1`, the permeability entry in series [3] is on record as “Permeable”. In the series with SH-SY5Y, the result was Active.
